The text below walks through data of US20230257383A1, “COMPOUND SERVING AS BTK INHIBITOR, PREPARATION METHOD THEREFOR, AND USE THEREOF” (CHENGDU HYPERWAY PHARMACEUTICALS CO., LTD., priority 2020, published 2023).

A short description of series [1]: Liver microsome metabolic stability test (human). Type of series: in vitro ADME. Particulars: for microsomal CLint: read-out: CLint (μL/min/mg) Human. The procedure, abridged:
(§1)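 Human or rat liver microsomes (working solution 0.5 mg/mL protein) were pre-incubated with compound at 37 °C. The reaction was started with NADPH regeneration system and quenched with ac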
A general note: Liver microsomes are vesicles of endoplasmic reticulum, rich in cytochrome P450 enzymes.

Series [2] can be described thus: Liver microsome metabolic stability test (rat). The series is classed as in vitro ADME. Particulars: for microsomal CLint: read-out: CLint (μL/min/mg) Rat. The procedure, abridged:
as §1

In series [3] the test system is TMD8 mouse subcutaneous xenograft tumor. Kind of series: TMD8 pharmacodynamic model test. Particulars: same dose of 20 mg/kg, FIG. 2. Type of series: in vivo. The method, then: Test Example 7: TNMD8 Pharmacodynamic Model Test
Human diffuse large B-cell lymphoma TMD8 cells were monolayer-cultured in vitro in RPNHI1640 medium with […], 100 U/mL penicillin and 100 μg/mL streptomycin, in a 37° C., […] incubator. Routine digestion with trypsin-EDTA was performed twice a week for passaging. When the cell density was […] and the number reached the requirement, cells were harvested, counted and inoculated. 0.2 ml (1×10^7 cells) of TMVD8 cells (added with matrigel at a volume ratio of 1:1) were subcutaneously inoculated on the right back of each mouse. The mice were administered in groups when the average tumor volume reached about 137 mm^3. Tumor diameters were measured twice a week with vernier calipers. The tumor volume was calculated by the formula V=0.5 a×b^2, where a and b represent the long and short diameters of the tumor, respectively.

For series [4], the system named is DOHH-2-luc tumor cells in the mouse brain. The series is described as follows: DOHH-2-Luc intracerebral tumor drug efficacy model test. Particulars: for inhibitory effect against the tumor compared with Tirabrutinib: DOHH2 tumor model in the mouse brain, same dose of 30 mg/kg (BID), FIG. 3; for fluorescence image of brain tumor (red area = tumor size): DOHH-2-Luc intracerebral model, same dose, FIG. 4; for side effects: mouse, 30 mg/kg (BID), after 21 days of administration. The series is classed as in vivo. How it is done:
Test Example 8: DOHH-2-Luc Intracerebral Tumor Drug Efficacy Model Test
DOHH-2-luc tumor cells were cultured in vitro with RPMI 1640 medium containing 10% fetal bovine serum and 500 ng/mL puromycin in a 37° C., 5% CO2 incubator. […] Tumor cells in logarithmic growth phase were used for inoculation of tumors in vivo.
2. Inoculation of Tumor Cell and Grouping
After the animal was anesthetized by intramuscular injection of Zoletil, it was fixed on the operating table in a prone position. The skin on the top of the head was disinfected with iodine and 75% alcohol respectively, and the skin was cut about 0.5 cm along the midline of the head to expose the coronal and sagittal lines. Being located about 0.5-1.0 mm above the coronal line and about 2 mm to the right of the sagittal line by using a brain locator, a hole was drilled with a 1 mL syringe needle. The micro-injector was inserted vertically to a depth of 3 mm at the location, slowly (about 1 min) injected with 3×10^5 DOHH-2-luc tumor cells/2 μL suspension and kept for 1 min. After pulling out the needle, the needle hole was quickly sealed with bone wax, and the wound was sutured with a stapler. About the 7th day after tumor inoculation, the animals were randomly divided into 5 groups according to the body weight of the animals and the optical signal intensity of the tumor site, with 5 animals in each group.
The mice were imaged 1-2 times a week according to their state using the small animal in vivo imaging system IVIS Lumina III (Perkin Elmer). The bioluminescence imaging (BLI, unit: photons/s) signal intensity at the tumor cell inoculation site of mouse was monitored as the main indicator for evaluating tumor growth and drug efficacy. The specific operation is as follows:
The mice were intraperitoneally injected with D-luciferin (15 mg/mL, 5 μL/g according to the body weight of the experimental animal), and then inhaled anesthetized with 1%-2% isoflurane. 10 min after the injection of D-luciferin, the animals were imaged with IVIS Lumina III. The data were analyzed and processed using Living Image software (Perkin Elmer), and the optical signal intensity in ROI (regions of interest) of each animal was calculated.

Regarding `Nc1nccn2c(C34CCC(CO)(CC3)OC4)nc(-c3ccc(C(F)(F)c4ccccc4Cl)cc3)c12` [Example 155], the microsomal CLint in series [1] (liver microsomes) turned out to be 41.7 µL/min/mg; in series [2] (liver microsomes), 62.2 µL/min/mg.
The corresponding values for `Nc1nccn2c(C34CCC(CO)(CC3)OC4)nc(-c3ccc(C(F)(F)c4cccc(Cl)c4F)cc3)c12` [Example 152] are 45.9 µL/min/mg and 102 µL/min/mg.
As to `Cc1cc(Nc2ncnc3ccc(NC4=NC(C)(C)CO4)cc23)ccc1Oc1ccn2ncnc2c1` [Tucatinib, reference compound], the figures for the microsomal CLint in series [1] (liver microsomes) and in series [2] (liver microsomes) were 43.7 µL/min/mg and 34.9 µL/min/mg, respectively.
Take `Nc1nccn2c(C3CCC(CO)OC3)nc(-c3ccc(C(F)(F)c4ccccc4)cc3)c12` (single isomer, unassigned) [Example 111-P1]: in series [3], the “inhibitory effect against the tumor compared with Tirabrutinib” value was “significantly better inhibitory effect against the tumor than Tirabrutinib”. In series [4], the “inhibitory effect against the tumor compared with Tirabrutinib” value is given as “significantly better inhibitory effect against the tumor than Tirabrutinib”; the “fluorescence image of brain tumor (red area = tumor size)” value was “very good inhibitory effect against the tumor, with almost no red area”; the side effects result was “no side effects had been found”.
As to `Nc1nccn2c(C34CCC(CO)(CC3)OC4)nc(-c3ccc(C(F)(F)c4ccccc4F)cc3)c12` [Example 145], the “% Remaining (60 min) Human” value in series [1] (60 min) is reported as 46.2%. For the same compound, the half-life in series [1] (liver microsomes, 0.5 mg/mL protein, read-out: T1/2 (min) Human) was 61.2 min; in series [2] (liver microsomes, 0.5 mg/mL protein, read-out: T1/2 (min) Rat), 60.8 min. The microsomal CLint in series [1] (liver microsomes) is 22.7 µL/min/mg; in series [2] (liver microsomes), 22.8 µL/min/mg. Moreover, the “% Remaining (60 min) Rat” value in series [2] (60 min) was 49.6%.
With `Nc1nccn2c(C34CCC(CO)(CC3)OC4)nc(-c3ccc(C(F)(F)c4ccccc4)cc3)c12` [Example 125], the microsomal CLint in series [1] (liver microsomes) was determined as 14.6 µL/min/mg; in series [2] (liver microsomes) it was 21.7 µL/min/mg. For the same compound, the “inhibitory effect against the tumor compared with Tirabrutinib” value in series [3] and in series [4] was “significantly better inhibitory effect against the tumor than Tirabrutinib” in each case. Moreover, in series [4], the “fluorescence image of brain tumor (red area = tumor size)” value is “very good inhibitory effect against the tumor, with almost no red area”. Further, the side effects result in series [4] is on record as “no side effects had been found”.
